Here are results for 14 molecules from ChEMBL document CHEMBL2203134, “Discovery of XL888: a novel tropane-derived small molecule inhibitor of HSP90” (Bioorg Med Chem Lett, 2012).

≈ marks a conversion by molar mass, not a printed value.

Series [1] addresses T1, Heat shock protein HSP90 (Homo sapiens, UniProt P07900+P08238). Kind of series: Inhibition of Hsp90 in human NCI-N87 cells assessed as Her2 degradation after 24 hrs by Western blot analysis. In kind it is cell-based. In general terms: In western blotting, separated proteins are transferred to a membrane and probed.
Series [2] can be described thus: Oral bioavailability in rat at 2.5 mg/kg. The note with it: in vivo. In kind it is ADME, organism-based.
Series [3] in a line: Half life in rat at 2.5 mg/kg, iv. In kind it is ADME, organism-based. More on the design: dose 2.5 mg/kg, route intravenous. The conditions noted are these: in vivo.
The test system of series [4] is Rattus norvegicus. Kind of series: Dose normalized AUC in rat at 2.5 mg/kg, iv. The note with it: in vivo. In kind it is ADME, organism-based. Also on record: dose 2.5 mg/kg, route intravenous.
Series [5] can be described thus: Clearance in rat at 2.5 mg/kg, iv. The class given is ADME, organism-based. More on the design: dose 2.5 mg/kg, route intravenous. The note with it: in vivo.
The nature of series [6]: Apparent permeability across MDCK cells. The class given is ADME, cell-based, Canis lupus familiaris. The conditions noted are these: dog.
In series [7] the target is T1, Heat shock protein HSP90. Kind of series: Displacement of biotinylated geldanamycin from human His-tagged Hsp90 by TR-FRET assay. In kind it is protein assay.
Series [8] is described as follows: Half life in rat at 5 mg/kg, iv. In kind it is ADME, organism-based. The note with it: in vivo. Also on record: dose 5 mg/kg, route intravenous.
Series [9] in a line: Oral bioavailability in rat at 5 mg/kg. The conditions noted are these: in vivo. In kind it is ADME, organism-based.
Series [10] deals with Rattus norvegicus. Kind of series: Dose normalized AUC in rat at 5 mg/kg, iv. In kind it is ADME, organism-based. More on the design: dose 5 mg/kg, route intravenous. The note with it: in vivo.
Series [11] can be described thus: Clearance in rat at 5 mg/kg, iv. In kind it is ADME, organism-based. Also on record: dose 5 mg/kg, route intravenous. The conditions noted are these: in vivo.
The nature of series [12]: Oral bioavailability in rat. The class given is ADME, organism-based. The conditions noted are these: in vivo.
The nature of series [13]: Half life in iv dosed rat. In kind it is ADME, organism-based. The conditions noted are these: in vivo.
A short description of series [14]: Clearance in iv dosed rat. The class given is ADME, organism-based. The conditions noted are these: in vivo.
Series [15] has as its system Rattus norvegicus. As to the kind of experiment: Dose normalized AUC in iv dosed rat. In kind it is ADME, organism-based. The note with it: in vivo.
Series [16] in a line: Kinetic solubility of the compound. In kind it is physicochemical. The note with it: read-out: Kinetic_solubility.
A short description of series [17]: Drug metabolism in human liver microsomes at 15 uM after 30 mins. In kind it is ADME, Microsome. The note with it: read-out: Drug metabolism.
Series [18] deals with T1, Heat shock protein HSP90. As to the kind of experiment: Inhibition of Hsp90 in human A549 cells assessed as Raf1 degradation after 24 hrs by Western blot analysis. The class given is cell-based.

By IC50 is commonly meant the midpoint of a concentration-inhibition curve. As usually defined, the bioavailability is the share of a dose that reaches the circulation, judged against a reference dose that is usually intravenous. As a reminder, the half-life is the time needed for the level to fall by half in the phase considered. What is called clearance is a measure of how efficiently the substance is removed, as volume per time. Higher therefore signals efficient removal. What is called Papp is a coefficient for how fast a substance crosses the barrier. On to `CCC(CC)Nc1cc(C(=O)NC2CC3CCC(C2)N3c2ccc(C(=O)C3CC3)cn2)c(C)cc1C(N)=O` (centres undefined), for which the IC50 on Heat shock protein HSP90 [1] is given as 82 nM; on Heat shock protein HSP90 [7], 25 nM. This molecule returned a bioavailability in series [2] of 29%. In series [3], this molecule showed a half-life of 1.8 h. The AUC/dose in the series on Rattus norvegicus [4] is 1.04 µM·kg·h/mg. The clearance in series [5] was 30.8 mL/min/kg. The Papp in series [6] was determined as 14.3 ×10⁻⁶ cm/s.

For the molecule `CCC(CC)Nc1cc(C(=O)NC2CC3CCC(C2)N3c2ccc(C(C)=O)cn2)ccc1C(N)=O` (centres undefined), the IC50 at Heat shock protein HSP90 [1] was 52 nM; on Heat shock protein HSP90 [7], 38 nM. Also, the half-life in series [8] is 0.5 h. In series [9], this molecule returned a bioavailability of 5%. Moreover, the AUC/dose with Rattus norvegicus [10] is 1.22 µM·kg·h/mg. Moreover, in series [11], the clearance was 28.5 mL/min/kg. For the same molecule, in series [6], the Papp came out at 67.6 ×10⁻⁶ cm/s.

For `CC(=O)c1ccc(N2C3CCC2CC(NC(=O)c2ccc(C(N)=O)c(NCC4CC4)c2)C3)nc1` (centres undefined), the IC50 on Heat shock protein HSP90 [1] is 182 nM; on Heat shock protein HSP90 [7] it was 40 nM. In series [2], this molecule returned a bioavailability of 42%. Moreover, the half-life in series [3] was 7 h. The molecule further displayed an AUC/dose in the series with Rattus norvegicus [4] of 0.5 µM·kg·h/mg. In series [5], this molecule showed a clearance of 71.5 mL/min/kg. Further, the apparent permeability (Papp) in series [6] came to 44.2 ×10⁻⁶ cm/s.

Take `CC[C@H](C)Nc1cc(C(=O)NC2CC3CCC(C2)N3c2ccc(C(=O)C3CC3)cn2)c(C)cc1C(N)=O` (some centres undefined): the IC50 on Heat shock protein HSP90 [1] came out at 252 nM. The bioavailability in series [2] came out at 20%. This molecule had a half-life in [3] of 1 h. In the series with Rattus norvegicus [4], this molecule gave an AUC/dose of 0.87 µM·kg·h/mg. In [5], the clearance is 38.5 mL/min/kg. In series [6], the Papp came to 24 ×10⁻⁶ cm/s.

`NC(=O)c1ccc(C(=O)NC2CC3CCC(C2)N3c2ccc(C(=O)NC3CCCC3)cn2)cc1NCC1CC1` (centres undefined): the figures for the half-inhibitory concentration (IC50) at Heat shock protein HSP90 [1] and on Heat shock protein HSP90 [7] were 351 nM and 89 nM, respectively. This molecule displayed a bioavailability in [2] of 0%. In addition, the half-life in [3] is 0.6 h. The same molecule yielded an AUC/dose in the series with Rattus norvegicus [4] of 0.49 µM·kg·h/mg. In addition, the clearance in series [5] is 63.5 mL/min/kg. Further, the Papp in series [6] was 4.8 ×10⁻⁶ cm/s.

Molecule `COc1cccc(C(=O)NC2CC3CCC(C2)N3c2ccc(C(=O)NCc3ccc(N4CCN(C)CC4)cc3)cn2)c1C` (centres undefined) displayed a bioavailability in [12] of 28%. In series [13], the half-life is 6.5 h. In series [14], this molecule showed a clearance of 112 mL/min/kg. This molecule also showed an AUC/dose with Rattus norvegicus [15] of 0.23 µM·kg·h/mg. Further, the Papp in series [6] is 7.4 ×10⁻⁶ cm/s. For the same molecule, the solubility kinetic in series [16] turned out to be 285 µM (≈ 166 µg/mL). Moreover, the metabolised at 0.5 h, 15 µM in [17] came out at 28%. In addition, the IC50 on Heat shock protein HSP90 [18] was 579 nM; on Heat shock protein HSP90 [7] it was 108 nM.

For `CCCNc1cc(C(=O)NC2CC3CCC(C2)N3c2ccc(C(=O)C3CC3)cn2)c(C)cc1C(N)=O` (centres undefined), the IC50 at Heat shock protein HSP90 [1] is recorded as 1122 nM; at Heat shock protein HSP90 [7] it was 24 nM. Moreover, in series [6], the Papp amounted to 23.4 ×10⁻⁶ cm/s.

With `NC(=O)c1ccc(C(=O)NC2CC3CCC(C2)N3c2ccc(C(=O)C3CC3)cn2)cc1NCC1CC1` (centres undefined), the figures for the IC50 at Heat shock protein HSP90 [1] and on Heat shock protein HSP90 [7] were 494 nM and 120 nM, respectively. The molecule also had a bioavailability in [2] of 41%. Moreover, the half-life in series [3] was 22 h. The same molecule gave an AUC/dose with Rattus norvegicus [4] of 3.7 µM·kg·h/mg. In series [5], this molecule gave a clearance of 8.43 mL/min/kg. For the same molecule, in series [6], the Papp amounted to 50.3 ×10⁻⁶ cm/s.

Regarding `C[C@H](NC(=O)c1ccc(N2C3CCC2CC(NC(=O)c2ccc(C(N)=O)c(NC4CCC4)c2)C3)nc1)c1ccc(N2CCN(C)CC2)cc1` (some centres undefined), in [6], the Papp worked out at 0.46 ×10⁻⁶ cm/s. Besides, the results for the IC50 at Heat shock protein HSP90 [18] and at Heat shock protein HSP90 [7] were 59 nM and 160 nM, respectively.

With `COc1cccc(C(=O)NC2CC3CCC(C2)N3c2ccc(C(=O)N[C@@H](C)c3ccccc3)cn2)c1C` (some centres undefined), the Papp in series [6] came to 38 ×10⁻⁶ cm/s. Also, the solubility kinetic in series [16] is 2.2 µM (≈ 1.1 µg/mL). Further, the metabolised at 0.5 h, 15 µM in series [17] turned out to be 68%. The results for the IC50 on Heat shock protein HSP90 [18] and on Heat shock protein HSP90 [7] were 421 nM and 126 nM, respectively.

With `Cc1cc(CO)ccc1C(=O)NC1CC2CCC(C1)N2c1ccc(C(=O)NCc2ccccc2)cn1` (centres undefined), the Papp in series [6] was found to be 3 ×10⁻⁶ cm/s. In addition, the IC50 at Heat shock protein HSP90 [18] was 1900 nM; at Heat shock protein HSP90 [7], 128 nM.

The molecule `COc1cccc(C(=O)NC2CC3CCC(C2)N3c2ccc(C(=O)N[C@@H](C)c3ccc(N4CCN(C)CC4)cc3)cn2)c1C` (some centres undefined) returned a bioavailability in series [12] of 30%. The same molecule had a half-life in series [13] of 6.4 h. The same molecule showed a clearance in [14] of 34.3 mL/min/kg. Further, in the series on Rattus norvegicus [15], the AUC/dose is 0.71 µM·kg·h/mg. For the same molecule, the apparent permeability coefficient (Papp) in [6] amounted to 6.3 ×10⁻⁶ cm/s. Besides, in series [16], the solubility kinetic stood at 447 µM (≈ 267 µg/mL). In series [17], the metabolised at 0.5 h, 15 µM was 37%. Besides, the IC50 is recorded as 374 nM at Heat shock protein HSP90 [18] and 200 nM at Heat shock protein HSP90 [7].

`Cc1cc(C(=O)NC2CC3CCC(C2)N3c2ccc(C(=O)N[C@@H](C)c3ccc(N4CCN(C)CC4)cc3)cn2)c(C)cc1C(N)=O` (some centres undefined): the Papp in [6] was under 0.01 ×10⁻⁶ cm/s. Also, the IC50 is recorded as 2900 nM on Heat shock protein HSP90 [18] and 53 nM at Heat shock protein HSP90 [7].

`O=C(NCc1ccccc1)c1ccc(N2C3CCC2CC(NC(=O)c2ccc(CO)cc2)C3)nc1` (centres undefined): the Papp in [6] worked out at 2.5 ×10⁻⁶ cm/s. In addition, the IC50 on Heat shock protein HSP90 [18] is given as 5400 nM; on Heat shock protein HSP90 [7], 322 nM.
